Measurements published in ChEMBL document CHEMBL1131484, “Human growth hormone-releasing hormone hGHRH(1-29)-NH2: systematic structure-activity relationship studies” (J Med Chem, 1998).
Values joined by “and” are separate entries in the source; they are usually repeats but may differ in a detail not shown here. Identical values can stand only once. Square brackets hold non-standard residues; d marks the D form. Peptide text beside a SMILES is read from it. αMeY = C[C@](N)(Cc1ccc(O)cc1)C(=O)O; Nle = CCCC[C@H](N)C(=O)O

Molecular target: T1, Growth hormone-releasing hormone receptor (Rattus norvegicus) (UniProt Q02644)
T1 sequence (whole entry): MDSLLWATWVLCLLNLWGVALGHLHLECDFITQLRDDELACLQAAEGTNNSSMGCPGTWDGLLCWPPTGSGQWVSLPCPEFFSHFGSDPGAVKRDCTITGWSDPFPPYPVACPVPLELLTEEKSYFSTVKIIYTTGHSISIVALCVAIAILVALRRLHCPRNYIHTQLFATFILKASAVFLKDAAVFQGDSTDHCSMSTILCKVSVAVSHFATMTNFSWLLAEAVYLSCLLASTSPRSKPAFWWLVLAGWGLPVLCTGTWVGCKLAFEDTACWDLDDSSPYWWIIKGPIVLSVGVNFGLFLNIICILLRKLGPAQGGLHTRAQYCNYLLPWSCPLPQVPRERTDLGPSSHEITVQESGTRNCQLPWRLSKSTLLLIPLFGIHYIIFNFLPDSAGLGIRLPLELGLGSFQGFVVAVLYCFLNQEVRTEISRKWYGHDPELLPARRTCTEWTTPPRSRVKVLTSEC
Experiment: Potency for growth hormone releasing hormone receptor (GHRFR) relative to human GHRH(1-40)OH- in the rat pituitary cell culture assay
Type: functional, cell-based
Details: Pituitary gland cell

Row | Molecule | Relative potency
1 | CC[C@H](C)[C@H](NC(=O)[C@H](C)NC(=O)[C@H](CC(=O)O)NC(=O)[C@H](C)NC(=O)[C@@](C)(N)Cc1ccc(O)cc1)C(=O)N[C@@H](Cc1ccccc1)C(=O)N[C@H](C(=O)N[C@@H](CC(N)=O)C(=O)N[C@@H](CO)C(=O)N[C@@H](Cc1ccc(O)cc1)C(=O)N[C@@H](CCCN=C(N)N)C(=O)N[C@@H](CCCCN)C(=O)N[C@H](C(=O)N[C@@H](CC(C)C)C(=O)N[C@@H](C)C(=O)N[C@@H](CCC(N)=O)C(=O)N[C@@H](CC(C)C)C(=O)N[C@@H](CO)C(=O)N[C@@H](C)C(=O)N[C@@H](CCCN=C(N)N)C(=O)N[C@@H](CCCCN)C(=O)N[C@@H](C)C(=O)N[C@@H](CC(C)C)C(=O)N[C@@H](CCC(N)=O)C(=O)N[C@@H](CC(=O)O)C(=O)N[C@H](C(=O)N[C@@H](CCSC)C(=O)N[C@@H](CO)C(=O)N[C@@H](CCCN=C(N)N)C(N)=O)[C@@H](C)CC)C(C)C)[C@@H](C)O (H-[αMeY]ADAIFTNSYRKVLAQLSARKALQDIMSR-NH2) | 25.6
2 | CCCC[C@H](NC(=O)[C@@H](NC(=O)[C@H](CC(=O)O)NC(=O)[C@H](CCC(N)=O)NC(=O)[C@H](CC(C)C)NC(=O)[C@H](CC(C)C)NC(=O)[C@H](CCCCN)NC(=O)[C@H](CCCN=C(N)N)NC(=O)[C@H](C)NC(=O)[C@H](CO)NC(=O)[C@H](CC(C)C)NC(=O)[C@H](CCC(N)=O)NC(=O)[C@H](C)NC(=O)[C@H](CC(C)C)NC(=O)[C@@H](NC(=O)[C@H](CCCCN)NC(=O)[C@H](CCCN=C(N)N)NC(=O)[C@H](Cc1ccc(O)cc1)NC(=O)[C@H](CO)NC(=O)[C@H](CC(N)=O)NC(=O)[C@@H](NC(=O)[C@H](Cc1ccccc1)NC(=O)[C@@H](NC(=O)[C@H](C)NC(=O)[C@H](CC(=O)O)NC(=O)[C@H](C)NC(=O)[C@@](C)(N)Cc1ccc(O)cc1)[C@@H](C)CC)[C@@H](C)O)C(C)C)[C@@H](C)CC)C(=O)N[C@@H](CO)C(=O)N[C@@H](CCCN=C(N)N)C(N)=O (H-[αMeY]ADAIFTNSYRKVLAQLSARKLLQDI[Nle]SR-NH2) | 5.8
3 | CC[C@H](C)[C@H](NC(=O)[C@H](C)NC(=O)[C@H](CC(=O)O)NC(=O)[C@H](C)NC(=O)[C@@H](N)Cc1ccc(O)cc1)C(=O)N[C@@H](Cc1ccccc1)C(=O)N[C@H](C(=O)N[C@@H](CC(N)=O)C(=O)N[C@@H](CO)C(=O)N[C@@H](Cc1ccc(O)cc1)C(=O)N[C@@H](CCCN=C(N)N)C(=O)N[C@@H](CCCCN)C(=O)N[C@H](C(=O)N[C@@H](CC(C)C)C(=O)NCC(=O)N[C@@H](CCC(N)=O)C(=O)N[C@@H](CC(C)C)C(=O)N[C@@H](CO)C(=O)N[C@@H](C)C(=O)N[C@@H](CCCN=C(N)N)C(=O)N[C@@H](CCCCN)C(=O)N[C@@H](CC(C)C)C(=O)N[C@@H](CC(C)C)C(=O)N[C@@H](CCC(N)=O)C(=O)N[C@@H](CC(=O)O)C(=O)N[C@H](C(=O)N[C@@H](CCSC)C(=O)N[C@@H](C)C(=O)N[C@@H](CCCN=C(N)N)C(N)=O)[C@@H](C)CC)C(C)C)[C@@H](C)O (stereo in doubt; 27) | 1.9
4 | CC[C@H](C)[C@H](NC(=O)[C@H](C)NC(=O)[C@H](CC(=O)O)NC(=O)[C@H](C)NC(=O)[C@@H](N)Cc1ccc(O)cc1)C(=O)N[C@@H](Cc1ccccc1)C(=O)N[C@H](C(=O)N[C@@H](CC(N)=O)C(=O)N[C@@H](CO)C(=O)N[C@@H](Cc1ccc(O)cc1)C(=O)N[C@@H](CCCN=C(N)N)C(=O)N[C@@H](CCCCN)C(=O)N[C@H](C(=O)N[C@@H](CC(C)C)C(=O)NCC(=O)N[C@@H](CCC(N)=O)C(=O)N[C@@H](CC(C)C)C(=O)N[C@@H](CO)C(=O)N[C@@H](C)C(=O)N[C@@H](CCCN=C(N)N)C(=O)N[C@@H](CCCCN)C(=O)N[C@@H](CC(C)C)C(=O)N[C@@H](CC(C)C)C(=O)N[C@@H](CCC(N)=O)C(=O)N[C@@H](CC(=O)O)C(=O)N[C@H](C(=O)N[C@@H](CCSC)C(=O)N[C@@H](C)C(=O)N[C@@H](CCCN=C(N)N)C(N)=O)[C@@H](C)CC)C(C)C)[C@@H](C)O (stereo in doubt; 39) | 2.2
5 | H-AADAIFTNSYRKVLGQLSARKLLQDIMSR-NH2 | 0.01
6 | H-YAAAIFTNSYRKVLGQLSARKLLQDIMSR-NH2 | 0.05
7 | H-YADAAFTNSYRKVLGQLSARKLLQDIMSR-NH2 | 0.1
8 | H-YADAIATNSYRKVLGQLSARKLLQDIMSR-NH2 | 0
9 | H-YADAIFANSYRKVLGQLSARKLLQDIMSR-NH2 | 0.29
10 | H-YADAIFTASYRKVLGQLSARKLLQDIMSR-NH2 | 2.1
11 | H-YADAIFTNAYRKVLGQLSARKLLQDIMSR-NH2 | 2.6
12 | H-YADAIFTNSARKVLGQLSARKLLQDIMSR-NH2 | 0.01
13 | H-YADAIFTNSYAKVLGQLSARKLLQDIMSR-NH2 | 0.01
14 | H-YADAIFTNSYRAVLGQLSARKLLQDIMSR-NH2 | 0.16
15 | H-YADAIFTNSYRKALGQLSARKLLQDIMSR-NH2 | 0.06
16 | H-YADAIFTNSYRKVAGQLSARKLLQDIMSR-NH2 | 0.01
17 | H-YADAIFTNSYRKVLAQLSARKLLQDIMSR-NH2 | 5.6
18 | H-YADAIFTNSYRKVLGALSARKLLQDIMSR-NH2 | 1.5
19 | H-YADAIFTNSYRKVLGQASARKLLQDIMSR-NH2 | 0.39
20 | H-YADAIFTNSYRKVLGQLAARKLLQDIMSR-NH2 | 1.6 and 1.4
21 | H-YADAIFTNSYRKVLGQLSAAKLLQDIMSR-NH2 | 0.3
22 | H-YADAIFTNSYRKVLGQLSARALLQDIMSR-NH2 | 0.27
23 | H-YADAIFTNSYRKVLGQLSARKALQDIMSR-NH2 | 4.7
24 | H-YADAIFTNSYRKVLGQLSARKLAQDIMSR-NH2 | 0.07
25 | H-YADAIFTNSYRKVLGQLSARKLLADIMSR-NH2 | 1.3
26 | H-YADAIFTNSYRKVLGQLSARKLLQAIMSR-NH2 | 1.3
27 | H-YADAIFTNSYRKVLGQLSARKLLQDAMSR-NH2 | 1.1
28 | H-YADAIFTNSYRKVLGQLSARKLLQDIASR-NH2 | 0.32
29 | H-YADAIFTNSYRKVLGQLSARKLLQDIMSA-NH2 | 0.59
